This note sets out measurements from patent US20250032524A1, “BROAD SPECTRUM AMINOGLYCOSIDES AND USES THEREOF” (REVAGENIX, INC., priority 2022, published 2025).

The assay deals with A. baumannii strain CDC-313. The experiment in a line: Neutropenic mouse lung infection model. The class given is in vivo. Particulars: neutropenic CD-1 male mice, FIG. 15.

Turning to `NCC[C@H](O)C(=O)N[C@@H]1C[C@H](N)[C@@H](O[C@H]2O[C@H](CN)[C@@H](O)[C@H](O)[C@H]2O)[C@H](O)[C@H]1O[C@H]1O[C@H](CO)[C@@H](O)[C@H](N)[C@H]1O` [amikacin], the “in vivo antibacterial activity against the strain” value was “minimal activity”.
